# Substitutions are numbered along the chain they refer to.
# T1: VEGF (Homo sapiens, UniProt P15692)
# T1 sequence (P15692 207-395 limits assumed): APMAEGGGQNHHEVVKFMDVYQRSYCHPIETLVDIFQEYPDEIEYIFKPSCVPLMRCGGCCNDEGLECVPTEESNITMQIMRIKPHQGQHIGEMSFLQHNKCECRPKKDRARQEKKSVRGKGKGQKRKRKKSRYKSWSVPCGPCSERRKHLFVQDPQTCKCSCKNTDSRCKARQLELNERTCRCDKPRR
# B1: endostatin: 183-amino acid proteolytic cleavage fragment corresponding to the C-terminus of collagen 18 (protein, UniProt P39060 1572-1754, looked up)
# Endostatin: HSHRDFQPVLHLVALNSPLSGGMRGIRGADFQCFQQARAVGLAGTFRAFLSSRLQDLYSIVRRADRAAVPIVNLKDELLFPSWEALFSGSEGPLKPGARIFSFDGKDVLRHPTWPQKSVWHGSDPNGRRLTESYCETWRTEAPSATGQASSLLGGRLLGQSAASCHHAYIVLCIENSFMTASK
# modifications: Endostatin
# B2: Endostatin dimer: disulfide-linked endostatin dimer, glutamine to cysteine at position 7, released from Fc-endostatin by enterokinase (protein, UniProt P39060 1572-1754, looked up, variant Q7C)
# Endostatin: B1 Endostatin with Q7C
# modifications: Endostatin disulfide-linked dimer
# notes: disulfide-linked endostatin dimer, glutamine to cysteine at position 7, released from Fc-endostatin by enterokinase
# Key:
# [1] = test system: Fc-Endostatin-resistant LLC cells (Endo P4); assay: Fc-Endostatin-resistant LLC tumors, passage 5, IGF1R inhibitor; format: in vivo, C57B16 mice
# Description: Previously generated passage four Fc-Endostatin-resistant LLC cells (Endo P4, as described in the following examples) were subcutaneously injected to C57B16 mice.
# [2] = test system: Wild type LLC tumors; assay: Wild type LLC lung cancer model, prevention trial; format: in vivo, C57B16 mice
# Method: Wild type LLC tumors (10.000 cells) were implanted s.c. in C57B16 mice. Tumors were sham treated (PBS, control), with the reference FN-mimetic-peptide (“FN-Motif”) containing only the “[…]” sequence (SEQ ID NO: 8) or with murine Superstatin (SEQ ID NO: 7) at the dose of 50 μg peptide in 100 μl PBS every 12 h s.c. (n: 5 in each group). Treatment was started 4 days after tumor implantation (“prevention trial”) and continued for 24 days. […] Tumor size reaching 1000 mm^2 was considered as death event in the Kaplan-Meier analysis.
# Tumors were sham treated (PBS), with the reference FN-mimetic-peptide containing only the “[…]” sequence (SEQ ID NO: 8; FN motif) or with murine Superstatin (SEQ ID NO: 7) at the dose of 50 μg peptide in 100 μl PBS every 12 h s.c. (n: 5 in each group). Treatment was started 4 days after tumor implantation (“prevention trial”) and continued for 24 days. […] Tumor size reaching 1000 mm^2 was considered as death event in the Kaplan-Meier analysis.
# [3] = test system: LLC FN −/− tumor cells; assay: Fibronectin knockdown LLC tumor model; format: in vivo, C57B16 mice; details: treatment started day 4 post implantation; p<0.01 vs control or Fc-Endostatin
# Description: In contrast, the Superstatin peptide (SEQ ID NO: 7) exerts potent tumor growth inhibition in FN −/− LLC tumors growing s.c. in C57B16 mice.
# Once the efficacy of the Superstatin peptide (SEQ ID NO: 7) was confirmed, the inventors moved toward the second strategy to validate the proposed concept that FN signaling is critical for oligomeric NC-1 to exert their anti-angiogenic and anti-tumoral effects. […] LLC FN −/− tumor cells (100.000) were implanted in C57B16 mice and treatment with dimeric murine Fc-Endostatin vs. Superstatin was started on day 4 post implantation. Knockdown of FN rendered LLC tumors resistant to oligomeric NC-1 (Fc-Endostatin).
# [4] = target: T2, fibronectin (Homo sapiens, UniProt P02751); assay: Biacore (SPR) equilibrium binding constants to fibronectin; details: fibronectin 0.78 nM-100 nM over immobilized protein; values only in FIG. 1C
# Method: Fibronectin samples were prepared by serial dilution into 0.01 M Hepes, pH 7.4, 0.15 M NaCl, 0.05% Surfactant containing 1 mg/ml BSA in the range 0.78 nM-100 nM and flowed over control and derivatized surfaces for three minutes at a flow-rate of 60 μl/min. Dissociation phases were monitored for 5 minutes. Zero concentration blank buffer cycles were included as negative control samples. Sensor surfaces were regenerated using a 1 minute injection of 1 M ethanolamine, pH 8.5 following each interaction analysis cycle. Non-specific binding effects to sensor surface CM4 were not observed. Calculated ka, kd and KD are shown. Different curves correspond to different concentrations of fibronectin.
# 1.3 Surface Plasmon Resonance (SPR) binding assays. This analysis provides for a unique method for measuring equilibrium constants between two binding partners. It is able to evaluate the kinetics of an interaction by recording the rates of complex formation (ka) and dissociation (kd) followed by employing a software which determines the values of these two parameters. Equilibrium constant (KD) is obtained by calculating the ration of kd/ka Human VEGF (R&D), endostatin, endostatin dimer and human NC-1 (hNC-1) were diluted to 50 μg/ml in 10 mM Sodium Acetate, pH 5.5 and immobilized onto series S sensor chip(s) CM4 via a standard N-ethyl-N′-(dimethyl-aminopropyl)carbodiimide/N-hydroxysuccinimide (EDC/NHS) amine coupling procedures. Control surfaces were prepared similarly without protein derivatization and utilized as a reference surface for compound binding experiments.
# Binding measurements were performed using a Biacore™ (GE Healthcare, Uppsala, Sweden) instrument which employs surface plasmon resonance to detect and monitor molecular interactions.
# Data analysis was carried out using Biacore T100 evaluation software v1.1.1. Data were prepared by subtraction of reference surface data and blank buffer sample data, a procedure commonly referred to as ‘double referencing’ and fitted to a 1:1 langmuir binding model.
# In order to measure equilibrium binding constants for the above proteins, a Biacore system was employed. […] Fc-endostatin imposes a dimeric structure on the two molecules of endostatin at the C-terminus of Fc dimer.
# [5] = target: T2, fibronectin; assay: Elisa, binding to fibronectin; details: proteins coated at 10 μg/ml; fibronectin as ligand at the same concentration
# Method: Coating of proteins were done in PBS at concentration of 10 μg/ml. Fibronectin served as a ligand at the same concentration. All buffers contained 2% BSA, 0.1% Tween-20.
# Three protein constructs human Fc (control), dimeric human (h)Fc-Endostatin and hFc-VEGF were employed. […] Artificial endostatin dimer was generated by introducing a single mutation in amino acid position 7 of endostatin (changing glutamine to cysteine) in the recombinant Fc-endostatin. Upon digestion of this mutant protein by enterokinase, endostatin dimer is produced, linked by a disulfide bond (Kuo et al., loc. cit.).
# [6] = target: T1, VEGF; assay: Competition with VEGF-ED-dimer (Fc-Endostatin) binding; details: preliminary data
# Description: The first approach was to engineer a minimal peptide sequence that would mimic the key effects of the ED-FN complex. […] Preliminary data by the present inventors indicate that this region itself may be capable of binding to VEGF and that the two histidines (Zinc binding domain) in this peptide sequence may be critical for VEGF binding. […] On the other hand, fibronectin contains two active motifs that are critical for its binding to ITGA5B1, i.e. a PHSRN-(SEQ ID NO:20) and a RGD-dependent motif.
# [7] = target: α5β1 (Homo sapiens, UniProt P05556+P08648); assay: Direct binding to integrin α5β1 (Elisa, immunoprecipitation, cell adhesion); details: immunoprecipitation and cell adhesion assays
# Description: Endostatin binding to two integrins αvβ3 and α5β1 was first reported in 2001 (Rehn et al. 2001, PNAS 98, 1024). Presumably, such a binding inhibits interactions of fibronectin with these integrins. […] Endostatin lacks the sequence RGD. Consequently, such a binding must be mediated by other amino acids on endostatin.
# [8] = in vivo; cited from earlier work
# [9] = cited from earlier work
# [10] = test system: human melanoma cancer cells (A2058); assay: A2058 human melanoma tumors in nude mice; format: in vivo; details: end of experiment; s.c. once a day; hNC-1 100 μg/mouse, endostatin 100 and 500 μg/mouse
# Method: 4-6 tumor-bearing nude mice in each group were subcutaneously (s.c.) treated with hNC-1 (100 μg/mouse once a day), clinical-grade endostatin (100 and 500 μg/mouse once a day) or PBS. Treatment was stopped prior to the development of necrosis. Sites of injection were away from tumors. Tumor sizes and the ratio of treated/control (T/C) is shown.
# 1.4 Animal and tumor models. All animal procedures were carried out in compliance with Children's Hospital Boston guidelines Protocols were approved by the Institutional Animal Care and Use Committee. Eight-week-old male (24-27 g) nude/nude mice (Massachusetts General Hospital, Boston, MA) were used. Mice were acclimated, caged in groups of five in a barrier care facility, and fed animal chow and water ad libitum. Animals were euthanized by CO2 inhalation. Human melanoma cell line A2058 was used for animal studies. A suspension of 2×10^6 tumor cells in 0.1 ml of PBS was injected subcutaneously (s.c.) into the dorsa of mice at the proximal midline. Mice were weighed and tumors were monitored twice a week in two diameters with digital calipers. Tumor volumes were determined using a^2×b×0.52 (where a is the shortest and b is the longest diameter). Tumors were allowed to grow to ˜100 mm^3 and mice were randomized. Treatment was by bolus s.c. injections. After experiments were completed, tumors and organs were excised and fixed in either 4% paraformaldehyde or were snap frozen. Four to six mice were treated with each group.
# 2.6 hNC-1 suppresses tumor growth in vivo. In order to compare anti-tumor activities of NC-1 and endostatin, nude mice bearing human melanoma cell line A2058 were employed. Two doses of clinical grade endostatin differing by 5-fold in concentration of protein (low and high doses) were used. […] It cannot be ruled out the possibility that injected NC-1 becomes degraded upon entering the circulation.
# [11] = 50 μg peptide every 12 h s.c., day 4 on for 24 days
# T2 sequence (P02751 32-2477): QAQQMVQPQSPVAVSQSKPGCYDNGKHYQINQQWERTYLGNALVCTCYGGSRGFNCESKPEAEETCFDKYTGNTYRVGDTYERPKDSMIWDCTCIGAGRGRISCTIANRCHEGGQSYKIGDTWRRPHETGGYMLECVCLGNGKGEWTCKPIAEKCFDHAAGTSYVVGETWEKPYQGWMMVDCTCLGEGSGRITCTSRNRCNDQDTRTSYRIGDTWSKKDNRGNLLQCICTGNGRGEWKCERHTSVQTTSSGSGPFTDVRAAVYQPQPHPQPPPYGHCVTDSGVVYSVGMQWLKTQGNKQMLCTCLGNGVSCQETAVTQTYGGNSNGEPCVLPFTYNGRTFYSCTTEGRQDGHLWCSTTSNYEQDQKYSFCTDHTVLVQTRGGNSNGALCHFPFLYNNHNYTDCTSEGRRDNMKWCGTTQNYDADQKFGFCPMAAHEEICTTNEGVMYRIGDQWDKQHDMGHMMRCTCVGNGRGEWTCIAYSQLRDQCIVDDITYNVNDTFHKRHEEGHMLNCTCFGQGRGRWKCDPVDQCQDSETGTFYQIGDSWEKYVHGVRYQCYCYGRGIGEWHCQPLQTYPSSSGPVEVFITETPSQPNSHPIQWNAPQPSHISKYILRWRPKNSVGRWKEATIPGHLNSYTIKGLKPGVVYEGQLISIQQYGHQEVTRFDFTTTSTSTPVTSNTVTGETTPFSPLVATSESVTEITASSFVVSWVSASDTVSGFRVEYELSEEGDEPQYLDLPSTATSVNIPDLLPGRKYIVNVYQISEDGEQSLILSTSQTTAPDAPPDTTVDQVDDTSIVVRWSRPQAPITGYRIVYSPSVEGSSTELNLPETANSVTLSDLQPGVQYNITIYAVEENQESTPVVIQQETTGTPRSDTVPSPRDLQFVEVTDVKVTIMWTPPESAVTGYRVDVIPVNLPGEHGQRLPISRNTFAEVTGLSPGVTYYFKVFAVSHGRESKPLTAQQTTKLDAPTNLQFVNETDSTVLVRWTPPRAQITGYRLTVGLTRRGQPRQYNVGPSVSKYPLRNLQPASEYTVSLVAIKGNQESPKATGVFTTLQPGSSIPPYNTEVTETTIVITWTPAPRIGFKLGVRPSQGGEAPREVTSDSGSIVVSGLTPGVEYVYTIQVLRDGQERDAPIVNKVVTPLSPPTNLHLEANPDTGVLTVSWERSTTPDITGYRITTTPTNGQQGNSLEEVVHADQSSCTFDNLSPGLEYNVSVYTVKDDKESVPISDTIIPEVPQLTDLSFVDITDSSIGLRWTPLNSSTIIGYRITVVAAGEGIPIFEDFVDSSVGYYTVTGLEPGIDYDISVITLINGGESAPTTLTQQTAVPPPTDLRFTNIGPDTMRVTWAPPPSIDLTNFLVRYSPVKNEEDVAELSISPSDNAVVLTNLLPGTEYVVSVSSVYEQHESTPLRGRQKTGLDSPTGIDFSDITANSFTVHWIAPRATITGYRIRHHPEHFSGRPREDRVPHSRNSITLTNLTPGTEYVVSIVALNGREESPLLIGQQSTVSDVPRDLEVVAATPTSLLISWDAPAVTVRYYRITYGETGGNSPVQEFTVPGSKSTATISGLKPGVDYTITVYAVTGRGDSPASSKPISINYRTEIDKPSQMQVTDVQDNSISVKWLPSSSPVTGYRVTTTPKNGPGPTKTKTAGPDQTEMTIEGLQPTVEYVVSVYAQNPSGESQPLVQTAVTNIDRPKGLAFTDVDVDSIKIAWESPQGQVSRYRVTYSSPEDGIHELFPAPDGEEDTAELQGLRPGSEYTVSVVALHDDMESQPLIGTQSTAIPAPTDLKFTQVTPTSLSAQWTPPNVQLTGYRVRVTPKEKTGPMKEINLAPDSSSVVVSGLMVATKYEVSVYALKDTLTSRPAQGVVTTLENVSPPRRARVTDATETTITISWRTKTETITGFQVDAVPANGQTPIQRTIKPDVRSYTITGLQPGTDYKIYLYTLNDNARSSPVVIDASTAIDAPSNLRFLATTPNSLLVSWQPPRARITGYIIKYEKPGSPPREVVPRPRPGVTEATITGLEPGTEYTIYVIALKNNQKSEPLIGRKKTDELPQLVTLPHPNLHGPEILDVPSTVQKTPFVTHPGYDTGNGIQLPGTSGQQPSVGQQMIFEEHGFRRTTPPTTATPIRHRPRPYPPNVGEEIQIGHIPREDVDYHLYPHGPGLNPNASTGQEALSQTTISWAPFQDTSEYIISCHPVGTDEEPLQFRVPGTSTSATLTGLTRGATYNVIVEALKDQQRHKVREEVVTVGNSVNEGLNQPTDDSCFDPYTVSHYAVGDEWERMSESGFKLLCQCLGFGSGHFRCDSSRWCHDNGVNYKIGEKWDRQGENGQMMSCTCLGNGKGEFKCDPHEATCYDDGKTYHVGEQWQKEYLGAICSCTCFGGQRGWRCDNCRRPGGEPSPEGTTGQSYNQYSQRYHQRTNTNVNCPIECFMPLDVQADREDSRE
# Sequence of α5β1 (P08648 42-894 limits assumed): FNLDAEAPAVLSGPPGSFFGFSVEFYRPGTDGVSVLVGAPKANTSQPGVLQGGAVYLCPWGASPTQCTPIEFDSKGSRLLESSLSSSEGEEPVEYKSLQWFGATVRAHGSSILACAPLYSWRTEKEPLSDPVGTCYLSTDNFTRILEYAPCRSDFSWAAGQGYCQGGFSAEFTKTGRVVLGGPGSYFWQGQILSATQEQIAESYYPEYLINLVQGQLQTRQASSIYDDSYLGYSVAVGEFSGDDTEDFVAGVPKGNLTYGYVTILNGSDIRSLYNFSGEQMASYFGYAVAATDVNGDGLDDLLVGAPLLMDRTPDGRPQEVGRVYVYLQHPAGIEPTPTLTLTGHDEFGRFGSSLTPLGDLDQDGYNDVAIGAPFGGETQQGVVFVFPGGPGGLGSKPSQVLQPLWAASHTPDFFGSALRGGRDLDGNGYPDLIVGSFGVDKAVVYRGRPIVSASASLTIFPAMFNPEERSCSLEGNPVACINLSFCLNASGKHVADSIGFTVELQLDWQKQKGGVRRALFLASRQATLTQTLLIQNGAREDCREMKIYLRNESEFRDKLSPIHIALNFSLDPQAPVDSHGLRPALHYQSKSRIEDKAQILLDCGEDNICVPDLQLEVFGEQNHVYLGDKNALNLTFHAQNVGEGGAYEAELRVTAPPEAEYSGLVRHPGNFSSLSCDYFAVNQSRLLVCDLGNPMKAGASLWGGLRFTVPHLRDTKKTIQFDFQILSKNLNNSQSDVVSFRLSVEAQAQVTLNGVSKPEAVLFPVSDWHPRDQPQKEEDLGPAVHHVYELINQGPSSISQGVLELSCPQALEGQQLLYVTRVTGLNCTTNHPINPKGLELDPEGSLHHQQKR
# Sequence of α5β1 (P08648 895-1049 limits assumed): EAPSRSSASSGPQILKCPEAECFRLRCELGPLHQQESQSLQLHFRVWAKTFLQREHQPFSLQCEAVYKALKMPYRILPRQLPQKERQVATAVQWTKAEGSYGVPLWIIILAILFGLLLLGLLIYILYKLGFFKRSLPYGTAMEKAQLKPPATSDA
# Sequence of α5β1 (P05556 21-798): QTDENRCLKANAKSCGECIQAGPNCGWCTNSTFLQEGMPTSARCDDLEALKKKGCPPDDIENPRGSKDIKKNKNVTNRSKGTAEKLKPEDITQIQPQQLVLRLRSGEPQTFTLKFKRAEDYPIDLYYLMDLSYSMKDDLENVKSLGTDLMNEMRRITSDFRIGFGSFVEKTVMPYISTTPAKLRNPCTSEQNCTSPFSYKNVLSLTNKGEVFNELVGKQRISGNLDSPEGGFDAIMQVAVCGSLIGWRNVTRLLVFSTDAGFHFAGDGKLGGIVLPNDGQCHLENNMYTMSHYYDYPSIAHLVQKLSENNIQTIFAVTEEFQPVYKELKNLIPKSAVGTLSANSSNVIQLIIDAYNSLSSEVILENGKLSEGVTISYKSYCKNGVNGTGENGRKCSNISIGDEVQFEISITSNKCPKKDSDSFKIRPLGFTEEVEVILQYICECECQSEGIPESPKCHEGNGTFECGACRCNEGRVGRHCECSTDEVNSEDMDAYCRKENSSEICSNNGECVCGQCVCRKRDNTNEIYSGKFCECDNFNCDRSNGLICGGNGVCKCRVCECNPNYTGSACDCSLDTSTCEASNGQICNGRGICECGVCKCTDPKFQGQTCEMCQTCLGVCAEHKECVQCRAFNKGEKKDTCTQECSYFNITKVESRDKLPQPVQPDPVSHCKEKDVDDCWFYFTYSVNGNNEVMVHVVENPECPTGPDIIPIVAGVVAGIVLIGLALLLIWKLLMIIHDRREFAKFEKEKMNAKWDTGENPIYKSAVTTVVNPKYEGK
molecule,measurement,setting,value
"COc1cc([C@@H]2c3cc4c(cc3[C@H](O)[C@H]3COC(=O)[C@@H]23)OCO4)cc(OC)c1OC [PPP, cyclolignan picropodophyllin]","tumor growth, sequential IGF1R inhibition","[1]; 20 mg/kg IP, sequential to mFc-Endo",inhibited tumor growth
same,"tumor growth, concurrent administration",[1]; concurrent with mFc-Endo,only partially reversed the enhanced growth kinetic
same,protein expression in passage 5 LLC tumors (Western blot),"[1]; mouse, in vivo",partially reversed this phenotype
FN-Motif: LYAVTGRGDSPASSK (SEQ ID NO: 8; same sequence as SEQ ID NO: 11) (listed as Mus musculus) [reference compound],tumor growth,[2]; [11],no significant improvement in prevention of tumor growth
"Superstatin: HTHQDFQPVLHLVLYAVTGRGDSPASSK (SEQ ID NO: 7), NC1-ED Motif-FN-Motif hybrid (listed as Mus musculus)",tumor growth,[2]; [11],potently inhibit tumor growth
same,survival (Kaplan-Meier) as compared to control,"[2]; 50 μg peptide every 12 h s.c., day 4 on for 24 days, p<0.03 by log-rank test",significantly prolonged survival
same,tumors growing during the treatment period,[2]; n: 5 in each group,only a single tumor grew
same,tumor growth in FN −/− LLC tumors,[3],significantly inhibited tumor growth
VEGF [reference compound],equilibrium binding constant to fibronectin (Biacore),[4],High affinity constants
same,binding to fibronectin (Elisa),[5],bound fibronectin
mP1-H1/3A: ATAQDFQPVLHLVALNTPLSGGMRGIR (SEQ ID NO: 19) (mP1-H1/3A),competition with VEGF-ED-dimer (Fc-Endostatin) binding,[6],failed to compete
B1,direct binding to α5β1,[7],without success
same,half-life in circulation,[8],very short
same,anti-tumor activity in clinical trials,[9]; in vivo,did not demonstrate substantial endostatin anti-tumor activity
same,safety in clinical trials,[9]; variety of dose schedules,very safe drug
same,equilibrium binding constant to fibronectin (Biacore),[4],No binding was detected
same,binding to fibronectin (Elisa),[5],did not
same,inhibition of tumor growth,[10],48%
B2,equilibrium binding constant to fibronectin (Biacore),[4],High affinity constants
same,binding to fibronectin (Elisa),[5],bound fibronectin
